From patent US7815900B1, “Use of C3-C5 monosaccharides to protect keratinous fibers” (L'Oréal S.A., priority 2000, dated 2010)

Columns and labels:
[1] = DSC doublet peak area (α-structure) of hair after heat cycles; conditions: for Doublet Peak Area: 0.06 M solutions
Procedure: (§1) Normal blonde hair was bleached with Clairol Basic White Bleach (40 volume H2O2) for 20 min at standard room temperature and humidity. The bleached swatches were rinsed with tap water, and soaked in an excess of deionized water for 2 hours. The swatches were air-dried and equilibrated for 48 hours prior to further treatment. Some of the bleached swatches were subsequently “permed” using a Reforming Lotion (10% TGA, pH 8.8, 20 minutes) and then neutralized with 2% H2O2, pH 3 (5 minutes). The bleached/permed swatches were rinsed with tap water, and soaked in an excess of deionized water for 2 hours. The swatches were air-dried and equilibrated for 48 hours prior to further treatment. The swatches that were heat treated were treated with 0.06M solutions of hexoses and pentoses for 10 min at 45° C. and then were heated for 12 cycles. The swatches were rinsed after the heat application.
(§2) In the DSC tests, finely cut hair (4-5 mg) was crimped in an aluminum pan that was punctured prior to each run. The samples were heated from 25° C. to 300° C., at a scanning rate of 20° C./min, with 5 runs per treatment. The results were averaged.
(§3) Normal blonde hair was bleached with Clairol Basic White Bleach, 40 volume H2O2, for 20 min at room temperature. One batch of normal and bleached hair swatches underwent five heat cycles at 130° C., where one treatment cycle involved the following steps (1-4):
(§4) 1. The swatches were treated with 0.06 M solutions of monosaccharides in deionized water (about 1 wt %) for 10 min at 45° C.
(§5) 2. The treated swatches were blow-dried for 1 min.
(§6) 3. The heat was applied for 1 min in the form of a flat hair iron Windmere “Solid Gold” (130° C.).
(§7) 4. The swatches were rinsed and blot-dried with a paper-towel.
(§8) The treatment solutions included four pentoses (D-xylose, D-arabinose, D-lyxose, and D-ribose, 1% each) and one hexose (1.2% D-glucose). Deionized water was used as a control treatment. After the heat experiment, the hair was rinsed in water, air-dried, and equilibrated for 24 hours in the humidity chamber at 25° C. and 50% RH prior to further testing. These swatches are referred to as treated at 130° C.
(§9) A second batch of normal and bleached hair swatches were treated in a similar way and blow-dried, without application of the hot iron. The treatment was also repeated 5 times, the swatches from the second batch are referred to as treated at 45° C.
Normal blonde hair was divided in two batches. The hair from the first batch was bleached with Clairol Basic White Bleach, 40 volume H2O2, for 20 min at room temperature and humidity. The hair from the second batch was first bleached as above, and then permed: Reforming lotion-10% Thioglycolic acid, pH 8.8, 20 min; neutralizer-2% hydrogen peroxide, 5 min. The oxidatively damaged hair was equilibrated for 24 hours prior to further testing.
(§10) Both the bleached and the bleached/permed hair were subjected to heat treatment, as in Example 2. The heat treatment experiment involved 12 heat cycles including application of sugar or control solution before each heat application, and rinsing after the heat application. Deionized water was used as a control treatment.
(§11) After the heat experiment, the hair was rinsed in water, air-dried, and equilibrated for 24 h in the humidity chamber at 25° C. and 50% RH prior to further testing. The effect of the hexoses vs. pentoses on the dry tensile strength (INSTRON) and the alpha-structure (doublet peak area, DSC) was tested on the bleached hair (Table 13). The effect of a hexose (D-glucose) vs. a pentose (D-Xylose) on wet tensile strength (DIA-STRON) was tested both on the bleached and the bleached/permed hair (Table 14). Application of 0.06M solutions of pentoses protected the bleached and the bleached/permed hair against thermal damage (α-structure; wet and dry tensile strength).

[2] = as above; conditions: bleached/permed hair, 12 heat cycles, 0.06 M
Procedure: Normal blonde hair was bleached with Clairol Basic White Bleach (40 volume H2O2) for 20 min at standard room temperature and humidity. The bleached swatches were rinsed with tap water, and soaked in an excess of deionized water for 2 hours. The swatches were air-dried and equilibrated for 48 hours prior to further treatment. Some of the bleached swatches were subsequently “permed” using a Reforming Lotion (10% TGA, pH 8.8, 20 minutes) and then neutralized with 2% H2O2, pH 3 (5 minutes). The bleached/permed swatches were rinsed with tap water, and soaked in an excess of deionized water for 2 hours. The swatches were air-dried and equilibrated for 48 hours prior to further treatment. The swatches that were heat treated were treated with 0.06M solutions of hexoses and pentoses for 10 min at 45° C. and then were heated for 12 cycles. The swatches were rinsed after the heat application. In the DSC tests, finely cut hair (4-5 mg) was crimped in an aluminum pan that was punctured prior to each run. The samples were heated from 25° C. to 300° C., at a scanning rate of 20° C./min, with 5 runs per treatment. The results were averaged. Normal blonde hair was divided in two batches. The hair from the first batch was bleached with Clairol Basic White Bleach, 40 volume H2O2, for 20 min at room temperature and humidity. The hair from the second batch was first bleached as above, and then permed: Reforming lotion-10% Thioglycolic acid, pH 8.8, 20 min; neutralizer-2% hydrogen peroxide, 5 min. The oxidatively damaged hair was equilibrated for 24 hours prior to further testing. Both the bleached and the bleached/permed hair were subjected to heat treatment, as in Example 2. The heat treatment experiment involved 12 heat cycles including application of sugar or control solution before each heat application, and rinsing after the heat application. Deionized water was used as a control treatment. After the heat experiment, the hair was rinsed in water, air-dried, and equilibrated for 24 h in the humidity chamber at 25° C. and 50% RH prior to further testing. The effect of the hexoses vs. pentoses on the dry tensile strength (INSTRON) and the alpha-structure (doublet peak area, DSC) was tested on the bleached hair (Table 13). The effect of a hexose (D-glucose) vs. a pentose (D-Xylose) on wet tensile strength (DIA-STRON) was tested both on the bleached and the bleached/permed hair (Table 14). Application of 0.06M solutions of pentoses protected the bleached and the bleached/permed hair against thermal damage (α-structure; wet and dry tensile strength).

[3] = Dry tensile strength (Instron) after heat cycles; conditions: for protection of dry tensile strength, in words: hair treated 5 cycles at 45° C. and at 130° C.
Procedure: as §1
(§12) Tensile strength was determined using both the Instron (50 dry fibers per tests) and the Dia-Stron (100 wet fibers per test), with the stretching rate of 100 mm/min. The following parameters were determined: Young's Modulus (N/m^2), Work to stretch 25% (J/m^2); Extension to Break (degree of elongation) (%); Work to Break (J/m^2).
as §3, §4, §5, §6, §7, §8, §9, §10, §11

[4] = DSC doublet peak area (α-structure) of hair after heat cycles; conditions: normal blonde hair
Procedure: as §1, §2, §3, §4, §5, §6, §7, §8, §9
Normal blonde hair was subjected to 12 heat cycles, as described in Example 2, using the following treatment solutions: 0.1% D-Xylose (pentose), 0.1% D-Erythrose (tetrose), and 0.1% D-Glyceraldehyde (triose). Each of the C3 to C5 monosaccharides was effective in protecting or reducing the damage to the α-structure of the hair, as compared to water treatment (Table 15).
Normal blonde hair was subjected to 12 heat cycles, as described in Example 2, using 0.1 wt % of the pentose amine derivative, D-Lyxosylimine in deionized water.

[5] = Dry tensile strength (Instron) after heat cycles; conditions: normal blonde hair, 5 heat cycles at 130° C., 0.06 M solutions, n = 50 fibers
Procedure: as §12, §3, §4, §5, §6, §7, §8, §9

[6] = bleached hair after 12 heat cycles
[7] = bleached hair after 12 heat cycles, 0.06 M solutions, n = 100 fibers
[8] = dry bleached hair, 12 heat cycles, 0.06 M, INSTRON, n = 50 fibers
[9] = 5 heat cycles at 130° C., 0.06 M solutions
[10] = bleached hair, 5 cycles at 45° C.
[11] = bleached hair, 5 heat cycles at 130° C.
[12] = dry, bleached hair, 5 cycles at 45° C., 0.06 M solutions, n = 50 fibers
[13] = 0.1 wt % solutions, 12 heat cycles at 130° C.
[14] = bleached hair, 5 heat cycles at 130° C., 0.06 M solutions, n = 50 fibers

| Compound | Doublet Peak Area [1, 6] | Work 25% (Dry) [3, 7] | Extension-Break [3, 8] | Work 25% [3, 8] | Work-Break [3, 8] | Young's Modulus [3, 8] | also measured |
| --- | --- | --- | --- | --- | --- | --- | --- |
| O=CC[C@H](O)[C@H](O)CO [2-Deoxy-D-ribose] | 9.63 +/− 2.87 J/g hair | 1,032 +/− 163 J/m^2 | 55.35 +/− 7.52% | 1,032 +/− 163 J/m^2 | 2,872 +/− 709 J/m^2 | 5,111 +/− 871 MN/m^2 | protection effect (normalized α-structure peak area), in words ([1]; bleached and bleached/permed hair, 12 heat cycles): protection effect was found; Normalized area ([1]; bleached hair, 12 heat cycles, 0.06 M): 9.63 +/− 2.87 J/g hair; Normalized area [2]: 6.43 +/− 1.87 J/g hair |
| O=C[C@@H](O)[C@H](O)[C@H](O)CO [D-Arabinose] | – | – | – | – | – | – | Doublet Peak Area [4, 9]: 11.33 +/− 2.30 J/g hair; Doublet Peak Area [1, 10]: 7.78 +/− 1.07 J/g hair; Doublet Peak Area [1, 11]: 8.22 +/− 0.90 J/g hair; Work 25% (Dry) [5]: 1,060 +/− 180 J/m^2; Work 25% [3, 12]: 1,147 +/− 191 J/m^2; protection of dry tensile strength, in words [3]: improved protection both at 45 °C and at 130 °C |
| O=C[C@H](O)[C@H](O)CO [D-Erythrose] | – | – | – | – | – | – | Doublet Peak Area [4, 13]: 13.20 +/− 7.15 J/g hair |
| O=C(CO)[C@@H](O)[C@H](O)[C@H](O)CO [D-Fructose] | 6.51 +/− 1.71 J/g hair | 885.0 +/− 161.0 J/m^2 | 59.89 +/− 8.11% | 885 +/− 161 J/m^2 | 2,644 +/− 644 J/m^2 | 4,492 +/− 852 MN/m^2 | – |
| O=C[C@H](O)[C@@H](O)[C@@H](O)[C@H](O)CO [D-Galactose] | 5.39 +/− 2.29 J/g hair | 945.8 +/− 168.9 J/m^2 | 58.82 +/− 6.21% | 945.8 +/− 168.9 J/m^2 | 2,696 +/− 533 J/m^2 | 4,724 +/− 913 MN/m^2 | – |
| O=C[C@H](O)CO [D-Glyceraldehyde] | – | – | – | – | – | – | Doublet Peak Area [4, 13]: 13.47 +/− 3.03 J/g hair |
| O=C[C@@H](O)[C@@H](O)[C@H](O)CO [D-Lyxose] | – | – | – | – | – | – | Doublet Peak Area [4, 9]: 8.35 +/− 0.81 J/g hair; Doublet Peak Area [1, 10]: 8.26 +/− 3.02 J/g hair; Doublet Peak Area [1, 11]: 6.23 +/− 0.59 J/g hair; Work 25% (Dry) [5]: 883.4 +/− 174.2 J/m^2; Work 25% (Dry) [3, 14]: 819.9 +/− 162.7 J/m^2; Work 25% [3, 12]: 1,157 +/− 228 J/m^2; protection of dry tensile strength, in words [3]: better improved protection at 45 °C |
| O=C[C@@H](O)[C@@H](O)[C@H](O)[C@H](O)CO [D-Mannose] | 5.47 +/− 1.27 J/g hair | 914.9 +/− 122.0 J/m^2 | 57.33 +/− 5.98% | 914.9 +/− 122 J/m^2 | 2,595 +/− 433 J/m^2 | 4,746 +/− 688 MN/m^2 | – |
| O=C[C@H](O)[C@H](O)[C@H](O)CO [D-Ribose] | – | – | – | – | – | – | Doublet Peak Area [1, 10]: 7.80 +/− 1.87 J/g hair; Doublet Peak Area [1, 11]: 9.27 +/− 2.81 J/g hair; Work 25% (Dry) [3, 14]: 1,064 +/− 171.1 J/m^2; Work 25% [3, 12]: 1,237 +/− 204 J/m^2; protection of dry tensile strength, in words [3]: improved protection both at 45 °C and at 130 °C |
| C[C@H](O)[C@@H](O)[C@@H](O)[C@H](O)C=O [L-Fucose] | 5.26 +/− 1.59 J/g hair | 838.2 +/− 134.5 J/m^2 | 57.01 +/− 6.18% | 838.2 +/− 134.5 J/m^2 | 2,346 +/− 543 J/m^2 | 4,331 +/− 860 MN/m^2 | – |
| D-Lyxosylimine | – | – | – | – | – | – | Doublet Peak Area ([4]; 0.1 wt % Lyxosylimine, 12 heat cycles at 130° C.): 11.49 +/− 3.56 J/g hair; protection of the α-structure as compared to water treatment, in words ([4]; 0.1 wt % solutions, 12 heat cycles): protected the α-structure hair |
